Reference: patent US20220152015A1, “NEDOCROMIL SODIUM TO PREVENT, LIMIT ONSET, AND /OR TREAT PANCREATIC CANCER” (priority 2020, published 2022)

Assays:
K-ras^G12Dp53^−/− tumors = assay: Surgically implanted PDAC tumors in tumor-bearing C57BL/6 mice; type: in vivo
Experimental: (§1) To determine whether targeting mast cell function has a therapeutic effect in PDAC, we injected tumor-bearing C57BL/6 mice Nedocromil sodium, a mast cell stabilizer. […] Tumor measurement was performed at the end time point (day 50) after treatment. […] Similarly, mast cell degranulation in the tumor microenvironment was inhibited in the nedocromil sodium-treated group compared with in the saline-treated control group.

human GPR35 = target: T1, human GPR35 (Homo sapiens, UniProt Q9HC97); assay: PathHunter human GPR35a-β-arrestin-2 interaction assay in CHO-K1 cells; type: cell-based
T1 construct: expressed in transfected cells; host or cells: CHO-K1

[1] = test system: ion channels present in the intestinal cell line HT29; assay: Whole-cell patch-clamp recordings of ion channels; type: cell-based; settings: HT29 cells
Description: Summary—Whole-cell patch-clamp recordings were used to test the effects of The Compound on ion channels.

[2] = test system: stage 4 transit metastatic melanoma; assay: Transit metastasis melanoma case study, topical application
Experimental: Person with stage 4 transit metastatic melanoma with 30 melanomas on the body. Using chemotherapy infusions every 3 weeks since 2019. For 2 weeks used topical Nedocromil sodium with one dose per tumor (30) per week. […] In modern medicine the goal is to shrink a tumor, but the tumor never resolves. […] The patient was treated with Nedocromil Sodium on all 30 tumors in one sitting.

Panc-02 tumor cells = assay: Panc-02 tumor growth in mice; type: in vivo; settings: treated mice vs. saline control at day 21 after treatment, P<0.001
Description: as §1, with “Tumor measurement was performed at the end time point (day 50) after treatment.” left out

cancerous tumor = assay: Dog tumor case, topical application; type: in vivo
Experimental: Summary—A female dog was given the diagnosis of a cancerous tumor (without confirmatory histology due to lack of ability to aspirate the tumor due to the hardness of the mass) in June of 2020. At the time of diagnosis the tumor located on […] right shoulder was measured at 2 inches by 2 inches with a depth of 0.5 inches. Other than supportive care (ketogenic diet to delay tumor progression, and gabapentin for neuropathic pain) no treatment was provided by the owners, as the cost and lack of clear benefit to conventional therapy (biopsy, chemotherapy, and eventual resection) was not deemed to be appropriate for this dog. […] On December 23rd, 2020 the first application of Nedocromil sodium compound was administered to the dog via the topical route. The dog's tumor area was shaved to improve the absorption of the compound into the skin. On Jul. 16, 2021 (tumor size of 1.5×1×0.5 inches), a second application of Nedocromil Sodium was applied using the same dosing strategy in attempt to eradicate the tumor entirely.

T1 sequence (Q9HC97 whole entry): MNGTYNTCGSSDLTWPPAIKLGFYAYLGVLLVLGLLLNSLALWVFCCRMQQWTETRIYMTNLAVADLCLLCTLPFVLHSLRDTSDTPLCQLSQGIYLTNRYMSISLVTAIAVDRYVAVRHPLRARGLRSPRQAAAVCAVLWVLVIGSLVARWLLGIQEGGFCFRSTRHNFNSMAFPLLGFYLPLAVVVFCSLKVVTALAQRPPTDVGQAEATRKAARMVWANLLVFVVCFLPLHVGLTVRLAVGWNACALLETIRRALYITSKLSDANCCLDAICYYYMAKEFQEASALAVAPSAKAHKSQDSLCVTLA

CCCc1c2oc(C(=O)[O-])cc(=O)c2cc2c(=O)cc(C(=O)[O-])n(CC)c12.[Na+].[Na+] [Nedocromil Sodium, 4H-Pyrano[3,2-g]quinoline-2,8-dicarboxylic acid, 9-ethyl-6,9-dihydro-4,6-dioxo-10-propyl-, disodium salt]
mast cell degranulation in the tumor microenvironment (K-ras^G12Dp53^−/− tumors; compared with saline-treated control group): inhibited
mean tumor size (K-ras^G12Dp53^−/− tumors; end time point (day 50) after treatment, saline group 31.3): 5.2 mm^3
tumor growth (K-ras^G12Dp53^−/− tumors; treated mice vs. saline control at day 42 after treatment, P<0.001): significantly suppressed
EC50 (human GPR35; CHO-K1 cell line stably expressing human GPR35 and β-arrestin): 2.98 ± 1.27 µM
agonism of GPR 35 (human GPR35; PathHunter β-arrestin-2 interaction assay): potent full agonist
dose dependence of ion channel block [1]: dose-dependent manner
number of tumors dissolved ([2]; after 2nd topical treatment): 17 OF THE 30 TUMORS
tumor change ([2]; after one topical treatment, 30 tumors): the tumors have flattened
side effects ([2]; all 30 tumors treated in one sitting): no side effects
tumor growth (Panc-02 tumor cells): significantly suppressed
tumor change (cancerous tumor; 8 week mark after second topical application): no tumor was able to be felt
tumor change (cancerous tumor; roughly 6 weeks after second topical application): noticeably smaller
